Holding throughout (assay): Test A postemergence
Holding throughout (assay type): in vivo

Assay [1] concerns Galium (catchweed bedstraw, Galium aparine). The note with it: Galium, post-emergence, 240 h; for pest or weed control at 125 g/ha: 125 g ai/ha; for pest or weed control at 500 g/ha: 500 g ai/ha. In a few lines: (§1)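 Seeds sprayed preemergence with a directed soil spray, or plants at 2 to 10 cm height and one- to two-leaf stage sprayed postemergence, with test chemicals in a non-phytotoxic solvent mixture containing surfactant, in loam soil–sand blend. Injury rated visually against untreated controls after about 10 d in greenhouse, 0 (no effect) to 100 (complete control).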

In assay [2] the test system is Kochia (Kochia scoparia). The note with it: Bassia scoparia, post-emergence, 240 h; for pest or weed control at 125 g/ha: 125 g ai/ha; for pest or weed control at 500 g/ha: 500 g ai/ha. The essentials:
as §1

For assay [3], the system named is blackgrass (Alopecurus myosuroides). The note with it: Alopecurus myosuroides, post-emergence, 240 h; for pest or weed control at 125 g/ha: 125 g ai/ha; for pest or weed control at 500 g/ha: 500 g ai/ha. In a few lines:
as §1

For assay [4], the system named is corn (Zea mays). The note with it: Zea mays, post-emergence, 240 h; for Corn plant response rating (crop injury, 0 = no effect, 100 = complete kill) at 125 g/ha / plant injury at 125 g/ha: 125 g ai/ha; for plant injury at 125 g/ha: visual injury vs untreated controls after approx. 10 d, 0 = no effect, 100 = complete control, read-out: Corn plant response rating (0 to 100 scale); for Corn plant response rating (crop injury, 0 = no effect, 100 = complete kill) at 500 g/ha / plant injury at 500 g/ha: 500 g ai/ha; for Corn plant response rating (crop injury, 0 = no effect, 100 = complete kill) at 500 g/ha: visual injury, approx. 10 d; for plant injury at 500 g/ha: 0 is no effect, 100 is complete control, read-out: Corn plant response rating. In a few lines: as §1

The test system of assay [5] is ragweed (common ragweed, Ambrosia elatior). The note with it: Ambrosia artemisiifolia, post-emergence, 240 h; for pest or weed control at 125 g/ha: 125 g ai/ha; for pest or weed control at 500 g/ha: 500 g ai/ha. In a few lines: as §1
For assay [6], the system named is wheat (Triticum aestivum). The note with it: Triticum aestivum, post-emergence, 240 h; for plant injury at 125 g/ha: 125 g ai/ha; for plant injury at 500 g/ha: 500 g ai/ha. In a few lines: as §1
Where [7] appears, read: postemergence, visual injury after approximately 10 d, 0 to 100 scale (0 no effect, 100 complete control), read-out: Plant response rating, Galium.
[8] abbreviates: postemergence, visual injury after approximately 10 d, 0 to 100 scale (0 no effect, 100 complete control), read-out: Plant response rating, Kochia.
[9] abbreviates: postemergence, visual injury after approximately 10 d, 0 to 100 scale (0 no effect, 100 complete control), read-out: Plant response rating, Blackgrass.
Where [10] appears, read: postemergence, visual injury after approximately 10 d, 0 to 100 scale (0 no effect, 100 complete control).
Setting [11] is: postemergence, visual injury after approximately 10 d, 0 to 100 scale (0 no effect, 100 complete control), read-out: Plant response rating, Ragweed.
The mark [12] stands for this setting: postemergence, visual injury vs untreated controls after approx. 10 d, 0 = no effect, 100 = complete control, read-out: Galium plant response rating (0 to 100 scale).
The mark [13] stands for this setting: Postemergence, visual injury, 0 to 100 scale (0 no effect, 100 complete control), approx. 10 d, read-out: Plant response rating, Galium.
Setting [14] is: postemergence, visual injury vs untreated controls after approx. 10 d, 0 = no effect, 100 = complete control, read-out: Kochia plant response rating (0 to 100 scale).
[15] abbreviates: Postemergence, visual injury, 0 to 100 scale (0 no effect, 100 complete control), approx. 10 d, read-out: Plant response rating, Kochia.
Setting [16] is: postemergence, visual injury vs untreated controls after approx. 10 d, 0 = no effect, 100 = complete control, read-out: Blackgrass plant response rating (0 to 100 scale).
Setting [17] is: Postemergence, visual injury, 0 to 100 scale (0 no effect, 100 complete control), approx. 10 d, read-out: Plant response rating, Blackgrass.
Where [18] appears, read: Postemergence, 0 to 100 scale (0 no effect, 100 complete control).
The mark [19] stands for this setting: postemergence, visual injury vs untreated controls after approx. 10 d, 0 = no effect, 100 = complete control, read-out: Ragweed plant response rating (0 to 100 scale).
Setting [20] is: Postemergence, visual injury, 0 to 100 scale (0 no effect, 100 complete control), approx. 10 d, read-out: Plant response rating, Ragweed.
The mark [21] stands for this setting: Postemergence, visual injury, 0 to 100 scale (0 no effect, 100 complete control), approx. 10 d, read-out: Plant response rating, Wheat.
Where [22] appears, read: postemergence, 0 to 100 scale, 0 is no effect, 100 is complete control, read-out: Galium plant response rating.
The mark [23] stands for this setting: postemergence, 0 to 100 scale, 0 is no effect, 100 is complete control, read-out: Blackgrass plant response rating.
[24] abbreviates: postemergence, 0 to 100 scale, 0 is no effect, 100 is complete control, read-out: Ragweed plant response rating.
Setting [25] is: postemergence, visual injury vs untreated controls after approx. 10 d, 0 = no effect, 100 = complete control, read-out: Wheat plant response rating (0 to 100 scale).
Setting [26] is: postemergence, 0 to 100 scale, 0 is no effect, 100 is complete control, read-out: Wheat plant response rating.

Like-named read-outs stand apart in the source and are kept apart here.

Regarding `C=CCN1C[C@H](c2ccc(OC)c(F)c2)[C@@H](C(=O)Nc2ccccc2S(C)(=O)=O)C1=O` [Compound 724], the pest or weed control at 125 g/ha in assay [1] (setting [7]), in assay [2] (setting [8]), in assay [3] (setting [9]) and in assay [5] (setting [11]) was 0% in each case. The Corn plant response rating (crop injury, 0 = no effect, 100 = complete kill) at 125 g/ha in assay [4] (setting [10]) was determined as 0%. The plant injury at 125 g/ha in assay [6] (postemergence, visual injury after approximately 10 d, 0 to 100 scale (0 no effect, 100 complete control), read-out: Plant response rating, Wheat) is 0%.

On to `CN1C[C@H](c2ccc(F)c(C#N)c2)[C@@H](C(=O)Nc2ccccc2F)C1=O` [Compound 1254], for which the pest or weed control at 125 g/ha came to 30% in assay [1] (setting [12]), 0% in assay [2] (setting [14]), 0% in assay [3] (setting [16]) and 0% in assay [5] (setting [19]). The pest or weed control at 500 g/ha in assay [1] (setting [13]) turned out to be 50%; in assay [2] (setting [15]) it was 40%; in assay [3] (setting [17]), 40%; in assay [5] (setting [20]), 0%. Further, the plant injury at 125 g/ha in assay [4] (postemergence) is 20%. Further, in assay [4] (setting [18]), the Corn plant response rating (crop injury, 0 = no effect, 100 = complete kill) at 500 g/ha was found to be 50%. For the same molecule, the plant injury at 500 g/ha in assay [6] (setting [21]) came out at 40%.

In the case of `Cc1ccc([C@H]2CN(C)C(=O)[C@@H]2C(=O)Nc2ccccc2F)cc1Cl` [Compound 1384], the pest or weed control at 125 g/ha in assay [1] (Postemergence, visual injury after approx. 10 d, 0 to 100 scale, 0 no effect, 100 complete control, read-out: Plant response rating, Galium) was 30%; in assay [2] (Postemergence, visual injury after approx. 10 d, 0 to 100 scale, 0 no effect, 100 complete control, read-out: Plant response rating, Kochia), 40%; in assay [3] (Postemergence, visual injury after approx. 10 d, 0 to 100 scale, 0 no effect, 100 complete control, read-out: Plant response rating, Blackgrass), 0%; in assay [5] (Postemergence, visual injury after approx. 10 d, 0 to 100 scale, 0 no effect, 100 complete control, read-out: Plant response rating, Ragweed), 40%. In addition, the pest or weed control at 500 g/ha in assay [1] (setting [13]) turned out to be 70%; in assay [2] (setting [15]), 60%; in assay [3] (setting [17]), 30%; in assay [5] (setting [20]) it was 40%. Also, the Corn plant response rating (crop injury, 0 = no effect, 100 = complete kill) at 125 g/ha in assay [4] (Postemergence, visual injury after approx. 10 d, 0 to 100 scale, 0 no effect, 100 complete control) came out at 70%. This molecule also yielded a Corn plant response rating (crop injury, 0 = no effect, 100 = complete kill) at 500 g/ha in assay [4] (setting [18]) of 90%. In addition, the plant injury at 125 g/ha in assay [6] (Postemergence, visual injury after approx. 10 d, 0 to 100 scale, 0 no effect, 100 complete control, read-out: Plant response rating, Wheat) stood at 0%. In assay [6] (setting [21]), the plant injury at 500 g/ha turned out to be 50%.

For `O=C1NC[C@H](c2ccc(C(F)(F)F)cc2)C1C(=O)Nc1ccccc1CO` (stereo partly shown) [Compound 1242], the pest or weed control at 125 g/ha in assay [1] (setting [12]), in assay [2] (setting [14]), in assay [3] (setting [16]) and in assay [5] (setting [19]) was 0% in each case. Besides, the pest or weed control at 500 g/ha in assay [1] (setting [22]) amounted to 20%; in assay [2] (postemergence, 0 to 100 scale, 0 is no effect, 100 is complete control, read-out: Kochia plant response rating) it was 0%; in assay [3] (setting [23]) it was 0%; in assay [5] (setting [24]), 0%. For the same molecule, the plant injury at 125 g/ha in assay [4] (postemergence) and in assay [6] (setting [25]) was 0% each time. For the same molecule, the plant injury at 500 g/ha in assay [4] (postemergence, 0 to 100 scale) turned out to be 0%.

Regarding `Cc1cc([C@H]2CNC(=O)[C@@H]2C(=O)Nc2cccc(F)c2F)ccc1Cl` [Compound 790], the pest or weed control at 125 g/ha turned out to be 50% in assay [1] (setting [7]), 40% in assay [2] (setting [8]), 40% in assay [3] (setting [9]) and 30% in assay [5] (setting [11]). Moreover, the Corn plant response rating (crop injury, 0 = no effect, 100 = complete kill) at 125 g/ha in assay [4] (setting [10]) came out at 30%.

`Cc1cc([C@H]2CNC(=O)[C@@H]2C(=O)Nc2ccccc2F)ccc1Cl` [Compound 789]: the pest or weed control at 125 g/ha in assay [1] (setting [7]) was determined as 40%; in assay [2] (setting [8]), 0%; in assay [3] (setting [9]), 40%; in assay [5] (setting [11]), 0%. In addition, in assay [4] (setting [10]), the Corn plant response rating (crop injury, 0 = no effect, 100 = complete kill) at 125 g/ha is 20%.

Regarding `CN1CC[C@H](c2ccc(C(F)(F)F)cc2)[C@@H](C(=O)Nc2cccc(F)c2F)C1=O` [Compound 1225], the pest or weed control at 125 g/ha in assay [1] (setting [12]) was 50%; in assay [3] (setting [16]), 30%; in assay [5] (setting [19]) it was 40%. The pest or weed control at 500 g/ha in assay [1] (setting [22]) was 70%; in assay [3] (setting [23]), 40%; in assay [5] (setting [24]), 50%. Further, the plant injury at 125 g/ha in assay [4] (postemergence) and in assay [6] (setting [25]) was 30% each time. For the same molecule, the plant injury at 500 g/ha in assay [4] (postemergence, 0 to 100 scale) worked out at 90%; in assay [6] (setting [26]), 70%.

On to `CSc1ccccc1NC(=O)[C@H]1C(=O)N(C)C[C@@H]1c1cccc(C)c1` [Compound 1232], for which the pest or weed control at 125 g/ha in assay [1] (setting [12]) came out at 20%; in assay [3] (setting [16]), 0%; in assay [5] (setting [19]) it was 0%. Besides, the pest or weed control at 500 g/ha in assay [1] (setting [22]) stood at 60%; in assay [3] (setting [23]), 40%; in assay [5] (setting [24]), 50%. For the same molecule, the plant injury at 125 g/ha in assay [4] (postemergence) and in assay [6] (setting [25]) was 0% each time. The plant injury at 500 g/ha in assay [4] (postemergence, 0 to 100 scale) turned out to be 70%.

For `Cc1ccc([C@H]2CCN(C)C(=O)[C@@H]2C(=O)Nc2cccc(F)c2F)cc1` [Compound 1220], the pest or weed control at 125 g/ha in assay [1] (setting [12]) was found to be 30%; in assay [3] (setting [16]), 30%; in assay [5] (setting [19]) it was 20%. In addition, the pest or weed control at 500 g/ha in assay [1] (setting [22]) stood at 40%; in assay [3] (setting [23]), 40%; in assay [5] (setting [24]), 30%. Moreover, the plant injury at 125 g/ha in assay [4] (postemergence) was found to be 30%; in assay [6] (setting [25]), 20%. The plant injury at 500 g/ha in assay [4] (postemergence, 0 to 100 scale) is 70%; in assay [6] (setting [26]), 40%.

These data come from patent US12077503B2, “Substituted cyclic amides and their use as herbicides” (FMC CORPORATION, priority 2015, dated 2024).
